Assay results as given in patent US8501992B2, “Hydroxyphenyl sulfonamides as antiapoptotic bcl inhibitors” (Bristol-Myers Squibb Company, priority 2008, dated 2013).

Tests used:
Type in all cases: binding
Bcl-2 = molecular target: T1, Bcl-2 (Homo sapiens, UniProt P10415); assay: Bcl2/Bim fluorescence polarization assay (FPA); details: BIM BH3 peptide 5 nM, Bcl-2 11 nM, Ki calculated from FPA data
T1 construct: without their C-terminal transmembrane domain; GST; made in house
Text: (§1) Compounds were profiled for their ability to disrupt in vitro binding interactions in fluorescence polarization assays (FPAs) using synthetic fluorochrome-labeled Bcl homology 3 (BH3) peptides derived from BIM [(FAM)-Ahx-[…]-NH2 (SEQ ID NO: 1) (GenBank Accession No. O43521)] or BAK [Ac-GQVGRQLAIIGE-LYS(FAM)-INR-NH2 (SEQ ID NO:2) (GenBank Accession No. Q16611) amino acid sequences and four bacterial recombinant proteins [Bcl-b (GenBank Accession No. Q9HD36), Bcl-2 (GenBank Accession No. P10415), Bcl-Xl (GenBank Accession No. Q07817), Mcl-1 (GenBank Accession No. Q07820)] without their C-terminal transmembrane domain. Proteins were purified from bacterial lysates using their glutathione S-transferase (GST)-tag (Bcl-b, Bcl-2, Mcl-1) or His6-tag (Bcl-Xl) and following one-step affinity chromatography procedures. Dissociation constants (Kd) for peptide binding protein were determined by fluorescence polarization in FPAs measuring BIM BH3 peptide binding Bcl-b, Mcl-1 or Bcl-2 protein or BAK BH3 peptide binding Bcl-Xl protein. The Kd values were generated by fitting the experimental data using a sigmoidal dose-response nonlinear regression model.
(§2) Compound inhibitory concentration values, IC50 (50% reduction in fluorescence polarization), were determined using fluorochrome-labeled BH3 peptides and recombinant Bcl proteins in fluorescence polarization assays (FPAs). Compounds diluted in DMSO (0.5 ul) were transferred (in duplicate) to individual wells of a 384-well plate. The fluorochrome-labeled peptide was added followed by recombinant protein addition. Each binding FPA reaction (50 ul) contained BIM BH3 peptide (5 nM) or BAK BH3 peptide (1.5 nM) and Bcl-b (40 nM), Mcl-1 (28 nM), Bcl-2 (11 nM) or Bcl-Xl. (5 nM) protein suspended in assay buffer [20 mM sodium phosphate, pH 7.4, 1 mM EDTA, 50 mM NaCl., 0.05% Pluronic F68]. Reaction mixtures were incubated at ambient temperature for 60 minutes prior to measuring polarization (mP) using an Analyst (LJL, Molecular Devices, Sunnyvale, Calif.) programmed to detect an emission wavelength of 530 nm after excitation (excitation wavelength=485 nm).
(§3) Competitive compound inhibition constants (Ki) were calculated using FPA experimental data and a mathematical equation, Ki=[I]50/([L]50/Kd+[P]0/Kd+1), where [I]50 denotes free inhibitor concentration at 50% inhibition, [L]50 is free labeled ligand concentration at 50% inhibition, [P]0 is free protein concentration at 0% inhibition, and Kd is the dissociation constant of the protein-ligand complex.

Bcl-b = molecular target: T2, Bcl-b (Homo sapiens, UniProt Q9HD36); assay: Bclb/Bim fluorescence polarization assay (FPA); details: BIM BH3 peptide 5 nM, Bcl-b 40 nM, Ki calculated from FPA data
T2 construct: without their C-terminal transmembrane domain; GST; made in house
T2 sequence (Q9HD36 1-182 limits assumed): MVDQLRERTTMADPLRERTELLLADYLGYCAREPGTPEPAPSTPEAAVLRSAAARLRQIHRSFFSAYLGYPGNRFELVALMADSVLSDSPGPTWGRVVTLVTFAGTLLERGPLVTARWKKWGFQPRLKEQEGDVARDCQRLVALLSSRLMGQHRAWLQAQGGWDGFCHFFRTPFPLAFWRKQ
Text: as §1, §2, §3

Mcl-1 = molecular target: T3, Mcl-1 (Homo sapiens, UniProt Q07820); assay: Mcl-1/Bim fluorescence polarization assay (FPA); details: BIM BH3 peptide 5 nM, Mcl-1 28 nM, Ki calculated from FPA data
T3 construct: without their C-terminal transmembrane domain; GST; made in house
Text: as §1, §2, §3

T3 sequence (Q07820 1-327 limits assumed): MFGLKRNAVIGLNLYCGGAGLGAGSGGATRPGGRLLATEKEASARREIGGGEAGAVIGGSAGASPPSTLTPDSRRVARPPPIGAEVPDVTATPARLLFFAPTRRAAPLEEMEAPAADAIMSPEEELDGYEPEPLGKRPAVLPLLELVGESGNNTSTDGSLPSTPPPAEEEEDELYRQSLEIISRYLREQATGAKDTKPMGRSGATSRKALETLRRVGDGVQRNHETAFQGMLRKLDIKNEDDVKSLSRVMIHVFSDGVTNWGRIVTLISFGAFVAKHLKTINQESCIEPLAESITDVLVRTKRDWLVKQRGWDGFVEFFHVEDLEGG
T1 sequence (P10415 1-211 limits assumed): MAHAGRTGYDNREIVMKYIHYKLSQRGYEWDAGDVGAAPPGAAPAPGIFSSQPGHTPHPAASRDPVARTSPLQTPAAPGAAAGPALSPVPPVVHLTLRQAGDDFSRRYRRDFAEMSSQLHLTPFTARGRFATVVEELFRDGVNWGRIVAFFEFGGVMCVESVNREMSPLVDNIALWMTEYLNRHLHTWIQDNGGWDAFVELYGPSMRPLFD

Ki (Bcl-2)	Ki (Bcl-b)	Ki (Mcl-1)	SMILES
110 nM	60 nM	10 nM	O=S(=O)(c1cc(Cl)cc(Cl)c1O)N(Cc1ccc(F)cc1)Cc1ccc(CN(Cc2ccc(F)cc2)S(=O)(=O)c2cc(Cl)cc(Cl)c2O)cc1 [Example 96, N-(4-Fluoro-benzyl)-N-(4-{[(4-fluoro-benzyl)-(3,5-dichloro-2-hydroxybenzene)sulfonyl-amino]-methyl}-benzyl)-3,5-dichloro-2-hydroxybenzenesulfonamide]
110 nM	70 nM	100 nM	CC(C)CN(Cc1ccc(CN(CC(C)C)S(=O)(=O)c2cc(Cl)cc(Cl)c2O)cc1)S(=O)(=O)c1cc(Cl)cc(Cl)c1O [Example 97, N-Isobutyl-N-{4-[(isobutyl-(3,5-dichloro-2-hydroxybenzene)sulfonyl-amino)-methyl]-benzyl}-(3,5-dichloro-2-hydroxybenzene)sulfonamide]
230 nM	160 nM	280 nM	O=S(=O)(NCc1ccc(CN(Cc2ccc(F)cc2)S(=O)(=O)c2cc(Cl)cc(Cl)c2O)cc1)c1cc(Cl)cc(Cl)c1 [Example 98, 3,5-Dichloro-N-(4-((3,5-dichlorophenylsulfonamido)methyl)benzyl)-N-(4-fluorobenzyl)-2-hydroxybenzenesulfonamide]
40 nM	40 nM	40 nM	O=C(c1ccc(CN(Cc2ccc(F)cc2)S(=O)(=O)c2cc(Cl)cc(Cl)c2O)cc1)N(Cc1ccc(F)cc1)Cc1cc(Cl)cc(Cl)c1 [Example 106, 4-((3,5-Dichloro-N-(4-fluorobenzyl)-2-hydroxyphenylsulfonamido)methyl)-N-(3,5-dichlorobenzyl)-N-(4-fluorobenzyl)benzamide]
480 nM	210 nM	520 nM	CC(C)N(Cc1ccccc1)C(=O)c1ccc(CN(Cc2ccc(F)cc2)S(=O)(=O)c2cc(Cl)cc(Cl)c2O)cc1 [Example 107, N-Benzyl-4-((3,5-dichloro-N-(4-fluorobenzyl)-2-hydroxyphenylsulfonamido)methyl)-N-isopropylbenzamide]
840 nM	440 nM	2060 nM	O=C(c1ccc(CN(Cc2ccc(F)cc2)S(=O)(=O)c2cc(Cl)cc(Cl)c2O)cc1)N1CCCCC1 [Example 130]
610 nM	280 nM	490 nM	CC(C)CCNC(=O)c1ccc(CN(Cc2ccc(F)cc2)S(=O)(=O)c2cc(Cl)cc(Cl)c2O)cc1 [Example 135, 4-((3,5-Dichloro-N-(4-fluorobenzyl)-2-hydroxyphenylsulfonamido)methyl)-N-isopentylbenzamide]
250 nM	220 nM	480 nM	CN(CCc1ccccc1)C(=O)c1ccc(CN(Cc2ccc(F)cc2)S(=O)(=O)c2cc(Cl)cc(Cl)c2O)cc1 [Example 137, 4-((3,5-Dichloro-N-(4-fluorobenzyl)-2-hydroxyphenylsulfonamido)methyl)-N-methyl-N-phenethylbenzamide]
820 nM	450 nM	1760 nM	CCCCNC(=O)c1ccc(CN(Cc2ccc(F)cc2)S(=O)(=O)c2cc(Cl)cc(Cl)c2O)cc1 [Example 138, N-Butyl-4-((3,5-dichloro-N-(4-fluorobenzyl)-2-hydroxyphenylsulfonamido)methyl)-benzamide]
660 nM	500 nM	1730 nM	O=C(c1ccc(CN(Cc2ccc(F)cc2)S(=O)(=O)c2cc(Cl)cc(Cl)c2O)cc1)N1CCN(c2cnccn2)CC1 [Example 140, 3,5-Dichloro-N-(4-fluorobenzyl)-2-hydroxy-N-(4-(4-(pyrazin-2-yl)piperazine-1-carbonyl)benzyl)benzenesulfonamide]
370 nM	170 nM	450 nM	O=C(N[C@H]1C[C@@H]1c1ccccc1)c1ccc(CN(Cc2ccc(F)cc2)S(=O)(=O)c2cc(Cl)cc(Cl)c2O)cc1 [Example 143, 4-((3,5-Dichloro-N-(4-fluorobenzyl)-2-hydroxyphenylsulfonamido)methyl)-N-((1S,2R)-2-phenylcyclopropyl)benzamide]
960 nM	450 nM	1730 nM	NS(=O)(=O)c1ccc(CNC(=O)c2ccc(CN(Cc3ccc(F)cc3)S(=O)(=O)c3cc(Cl)cc(Cl)c3O)cc2)cc1 [Example 147, 4-((3,5-Dichloro-N-(4-fluorobenzyl)-2-hydroxyphenylsulfonamido)methyl)-N-(4-sulfamoylbenzyl)benzamide]
440 nM	200 nM	460 nM	CN(C)c1ccc(CNC(=O)c2ccc(CN(Cc3ccc(F)cc3)S(=O)(=O)c3cc(Cl)cc(Cl)c3O)cc2)cc1 [Example 150, 4-((3,5-Dichloro-N-(4-fluorobenzyl)-2-hydroxyphenylsulfonamido)methyl)-N-(4-(dimethylamino)benzyl)benzamide]
40 nM	60 nM	30 nM	O=C(c1ccc(N(Cc2ccc(F)cc2)S(=O)(=O)c2cc(Cl)cc(Cl)c2O)cc1)N(Cc1ccc(F)cc1)Cc1cc(Cl)cc(Cl)c1 [Example 175, 4-(3,5-Dichloro-N-(4-fluorobenzyl)-2-hydroxyphenylsulfonamido)-N-(3,5-dichlorobenzyl)-N-(4-fluorobenzyl)benzamide]
440 nM	180 nM	480 nM	O=S(=O)(c1cc(Cl)cc(Cl)c1)N(CCO)Cc1ccc(CN(Cc2ccc(F)cc2)S(=O)(=O)c2cc(Cl)cc(Cl)c2O)cc1 [Example 176]
180 nM	150 nM	550 nM	CC(C)CN(Cc1cccc(CN(Cc2ccc(-c3ccc(F)cc3)cc2)S(=O)(=O)c2cc(Cl)cc(Cl)c2O)c1)C(=O)c1ccc2[nH]c(=O)c(=O)[nH]c2c1 [Example 190, N-(3-((3,5-Dichloro-N-((4′-fluorobiphenyl-4-yl)methyl)-2-hydroxyphenylsulfonamido)methyl)-benzyl)-N-isobutyl-2,3-dioxo-1,2,3,4-tetrahydroquinoxaline-6-carboxamide]
110 nM	180 nM	530 nM	CC(C)CN(Cc1cccc(CN(Cc2ccc(-c3ccc(F)cc3)cc2)S(=O)(=O)c2cc(Cl)cc(Cl)c2O)c1)C(=O)c1nc2ccccc2s1 [Example 191, N-(3-((3,5-Dichloro-N-((4′-fluorobiphenyl-4-yl)methyl)-2-hydroxyphenylsulfonamido)methyl)-benzyl)-N-isobutylbenzo[d]thiazole-2-carboxamide]
480 nM	160 nM	530 nM	CC(C)NC(=O)c1cc(Cl)c(O)c(S(=O)(=O)N(Cc2ccc(F)cc2)Cc2cccc(-c3ccc(Cl)cc3)c2)c1 [Example 211, 3-Chloro-5-(N-((4′-chlorobiphenyl-3-yl)methyl)-N-(4-fluorobenzyl)-sulfamoyl)-4-hydroxy-N-isopropylbenzamide]
1220 nM	470 nM	2700 nM	O=C(NCCCO)c1cc(Cl)c(O)c(S(=O)(=O)N(Cc2ccc(F)cc2)Cc2cccc(-c3ccc(Cl)cc3)c2)c1 [Example 213, 3-Chloro-5-(N-((4′-chlorobiphenyl-3-yl)methyl)-N-(4-fluorobenzyl)-sulfamoyl)-4-hydroxy-N-(3-hydroxypropyl)benzamide]
1800 nM	610 nM	1640 nM	O=C(NCC(O)CO)c1cc(Cl)c(O)c(S(=O)(=O)N(Cc2ccc(F)cc2)Cc2cccc(-c3ccc(Cl)cc3)c2)c1 (stereo not drawn) [Example 214, 3-Chloro-5-(N-((4′-chlorobiphenyl-3-yl)methyl)-N-(4-fluorobenzyl)-sulfamoyl)-N-(2,3-dihydroxypropyl)-4-hydroxybenzamide]
170 nM	120 nM	40 nM	O=C(NCc1ccccc1)c1cc(Cl)c(O)c(S(=O)(=O)N(Cc2ccc(F)cc2)Cc2ccc(Oc3ccc(C(F)(F)F)cc3)cc2)c1 [Example 219, N-Benzyl-3-chloro-5-(N-(4-fluoro-benzyl)-N-(4-(4-(trifluoromethyl)-phenoxy)benzyl)sulfamoyl)-4-hydroxybenzamide]
